Where only a bound is given, the exact number is not on record here.

Tested on in the first data set: not given
Test: not given
Details: not given
Take `CCOC(=O)OC1=C(c2c(F)ccc(C)c2Cl)C(=O)N(OCOC)C12CCN(OC)CC2` [P1ii.61]: the melting point lay in the range of 116 to 119 °C.
Compound `COCCON1C(=O)C(c2c(C)cc(Cl)cc2C)=C(O)C12CCN(OC)CC2` [P2ii.101] displayed a melting point of 161 to 164 °C.
In the case of `COCCON1C(=O)C(c2cc(Br)c(F)cc2C)=C(O)C12CCN(OC)CC2` [P2ii.87], the melting point is 71 to 74 °C.
As for `CCN1C(=O)C(c2c(C)cc(C)cc2C)=C(O)C12CCN(OC)CC2` [P2.11], the melting point fell in the range of 218 to 221 °C.
In turn, `CCOC(=O)OC1=C(c2c(C)cc(Cl)cc2C)C(=O)N(OC)C12CCN(OC)CC2` [P1ii.114] showed a melting point of 122 to 125 °C.
Compound `CON1CCC2(CC1)C(O)=C(c1cc(C)ccc1C)C(=O)N2C` [P2.1] had a melting point of 121 to 123 °C.
The compound `COCCON1C(=O)C(c2cc(Br)c(C)cc2C)=C(O)C12CCN(OC)CC2` [P2ii.73] showed a melting point of 63 to 64 °C.
Turning to `CCOC(=O)OC1=C(c2cc(C)ccc2C)C(=O)N(C)C12CCN(OC)CC2` [P1.1], the melting point lay in the range of 96 to 110 °C.
For the compound `CON1CCC2(CC1)C(O)=C(c1cc(C)c(C)cc1Cl)C(=O)N2C` [P2.26, 3-(2-Chloro-4,5-dimethyl-phenyl)-4-hydroxy-8-methoxy-1-methyl-1,8-diaza-spiro[4.5]dec-3-en-2-one], the melting point lay within 191 to 192 °C.
The compound `CCOC(=O)OC1=C(c2c(Cl)ccc(C)c2F)C(=O)N(OC2CCCC2)C12CCN(OC)CC2` [P1ii.43] had a melting point of 135 to 137 °C.
Take `CON1CCC2(CC1)C(O)=C(c1c(C)cc(C)cc1C)C(=O)N2CC1CC1` [P2.8, 1-Cyclopropylmethyl-4-hydroxy-8-methoxy-3-(2,4,6-trimethyl-phenyl)-1,8-diaza-spiro[4.5]dec-3-en-2-one]: the melting point fell in the range of 223 to 225 °C.
The compound `CCOC(=O)OC1=C(c2c(C)cc(C)cc2C)C(=O)N(CC)C12CCN(OC)CC2` [P1.8] returned a melting point of 101 to 103 °C.
The compound `CON1CCC2(CC1)C(O)=C(c1cc(Br)c(C)cc1C)C(=O)N2C` [P2.28] registered a melting point of 182 to 183 °C.
`CON1CCC2(CC1)C(O)=C(c1cc(C)c(C)cc1C)C(=O)N2C` [P2.25]: the melting point lay within 183 to 186 °C.
As for `COCON1C(=O)C(c2cc(C)ccc2C)=C(OC(=O)CC(C)(C)C)C12CCN(OC)CC2` [P1ii.5], the melting point fell in the range of 93 to 95 °C.
For the compound `CCOC(=O)OC1=C(c2cc(C)c(C)cc2Cl)C(=O)N(C)C12CCN(OC)CC2` [P1.22], the melting point lay within 149 to 150 °C.
As for `CON1CCC2(CC1)C(O)=C(c1cc(C)c(C)cc1Br)C(=O)N2C` [P2.23], the melting point was in the range of 191 to 193 °C.
As to `COCON1C(=O)C(c2c(C)cc(-c3ccc(Cl)cc3)cc2C)=C(O)C12CCN(OC)CC2` [P2ii.15, 3-(4′-Chloro-3,5-dimethyl-biphenyl-4-yl)-4-hydroxy-8-methoxy-1-methoxymethoxy-1,8-diaza-spiro[4.5]dec-3-en-2-one], the melting point was 128 °C (dec.).
`COCON1C(=O)C(c2cc(Br)c(F)cc2C)=C(O)C12CCN(OC)CC2` [P2ii.89] yielded a melting point of 64 to 67 °C.
In turn, `CCOC(=O)OC1=C(c2cc(C)c(C)cc2Br)C(=O)N(C)C12CCN(OC)CC2` [P1.20] had a melting point of 158 to 159 °C.
As to `COCON1C(=O)C(c2cc(C)ccc2C)=C(OC)C12CCN(OC)CC2` [P1ii.31], the melting point was 91 to 93 °C.
Turning to `CON1CCC2(CC1)C(O)=C(c1c(C)cc(C)cc1C)C(=O)N2OCC1CCCCC1` [P2ii.96], the melting point is 169 to 172 °C.
Compound `CON1CCC2(CC1)C(O)=C(c1c(C)cc(Cl)cc1C)C(=O)N2OC1CCCO1` (stereo not shown) [P2ii.105] showed a melting point of 137 to 139 °C.
Compound `CON1CCC2(CC1)C(O)=C(c1cc(Br)c(C)cc1C)C(=O)N2OC` [P2ii.75] registered a melting point of 86 to 87 °C.
In the case of `COCON1C(=O)C(c2c(F)ccc(C)c2Cl)=C(O)C12CCN(OC)CC2` [P2ii.60], the melting point was 155 to 158 °C.
Take `CON1CCC2(CC1)C(O)=C(c1c(C)cc(Cl)cc1C)C(=O)N2OC` [P2ii.102]: the melting point lay within 88 to 92 °C.
`COCON1C(=O)C(c2c(C)cc(Cl)cc2C)=C(O)C12CCN(OC)CC2` [P2ii.104] yielded a melting point of 176 to 178 °C.
On the same count and under the same terms, with `CON1CCC2(CC1)C(O)=C(c1c(C)cc(C)cc1C)C(=O)N2OCCOC1CCCCO1` (stereo not shown) [P2ii.22] the figure was 135 to 137 °C.

For the next data set, the system named is IND3 strain of Nilaparvata lugens (Neonicotinoid resistant). Nature of the data set: Example B2b: Nilaparvata lugens larvicide, feeding/contact activity, preventive (rice seedlings), resistant strain. As to conditions: Lowest concentration giving greater than 80% mortality of resistant (IND3) hoppers / same for susceptible hoppers; Nilaparvata lugens N3 nymphs on rice seedlings, 6 and 12 days after treatment. It is filed as in vivo. An excerpt:
(§1) The level of resistance and therefore the impact on the performance of the insecticide can be measured by the use of a ‘Resistance Factor’. The resistance factor can be calculated by dividing the concentration of an insecticide that provides a set level of mortality (i.e. 80%) for the ‘resistant’ strain with the concentration of the same insecticide that provides the same level of mortality for the ‘susceptible’ insect of the same species and life-stage. Although there are no set rules, a low value (1-10) indicates no cross-resistance and only natural levels of variation and a high value (50+) provides strong evidence of cross-resistance.
b) Neonicotinoid Resistant Strain of the Brown Planthopper (Nilaparvata lugens)
Nilaparvata lugens strains utilised: • Standard screening strain of Nilaparvata lugens (Neonicotinoid susceptible) • IND3 strain of Nilaparvata lugens (Neonicotinoid resistant) Bioassay Method:
Nilaparvata lugens: larvicide, feeding/contact activity, preventive
Rice seedlings are treated with the diluted test solutions in a turn table spray chamber. After drying, they are infested with 20 N3 nymphs. 6 and 12 days after the treatment samples are checked for mortality, growth regulation, and effects on the F1 generation.
On to `CCOC(=O)OC1=C(c2c(C)cc(Cl)cc2C)C(=O)N(C)C12CCN(OC)CC2`, for which the “Resistance Factor (RF80)” value turned out to be 4.
On to `CN1COCN(Cc2cnc(Cl)s2)/C1=N\[N+](=O)[O-]` [thiamethoxam, reference compound], for which the “Resistance Factor (RF80)” value was more than 64.
Same read-out and setting: with `CCOC(=O)OC1=C(c2c(C)cc(C)cc2C)C(=O)N(OCC)C12CCN(OC)CC2` [drawing 473] the figure was less than 1.
As to `CCOC(=O)OC1=C(c2c(C)cc(C)cc2C)C(=O)N(OC2CCCO2)C12CCN(OC)CC2` (stereo not shown), the “Resistance Factor (RF80)” value amounted to 1.
For the compound `CON1CCC2(CC1)C(=O)C(c1c(C)cc(C)cc1C)C(=O)N2C` (stereo not shown), the “Resistance Factor (RF80)” value turned out to be 1.

The same data set, now with this note: neonicotinoid resistant IND3 versus susceptible Nilaparvata lugens.
`CN1COCN(Cc2cnc(Cl)s2)/C1=N\[N+](=O)[O-]` [thiamethoxam, reference compound]: the “Resistance factor (RF)” value is recorded as “high”.

The subject of a further data set is FRC-P strain of Myzus persicae (Neonicotinoid resistant). Nature of the data set: Example B2a: Myzus persicae mixed population, contact activity, curative on pea seedlings, resistant strain. The data set is classed as in vivo. To be noted: Lowest concentration giving greater than 80% mortality of resistant (FRC-P) aphids / same for susceptible aphids; Myzus persicae on pea seedlings, spray, 6 days after treatment.
Description: as §1
a) Neonicotinoid and Pyrethroid Resistant Strain of the Green Peach Aphid (Myzus persicae)
Myzus persicae strains utilised: • Standard screening strain of Myzus persicae (Neonicotinoid susceptible) • FRC-P strain of Myzus persicae (Neonicotinoid resistant) Bioassay Method:
Myzus persicae: mixed population, contact activity, curative on pea seedlings
Pea seedlings, infested with an aphid population of mixed ages, are treated with the test solutions in a spray chamber. 6 days after treatment, samples are checked for mortality.
Consider `CCOC(=O)OC1=C(c2c(C)cc(C)cc2C)C(=O)N(C)C12CCN(OC)CC2` [drawing 471], for which the “Resistance Factor (RF80)” value amounted to 1.
As to `CON1CCC2(CC1)NC(=O)C(c1c(C)cc(C)cc1C)C2=O` (stereo not shown), the “Resistance Factor (RF80)” value is reported as 4.
Consider `CN1COCN(Cc2cnc(Cl)s2)/C1=N\[N+](=O)[O-]` [thiamethoxam, reference compound], for which the “Resistance Factor (RF80)” value is more than 250.
With `CCOC(=O)OC1=C(c2c(C)cc(C)cc2C)C(=O)N(OCC)C12CCN(OC)CC2` [drawing 468], the “Resistance Factor (RF80)” value stood at 4.
Turning to `CCOC(=O)OC1=C(c2c(C)cc(C)cc2C)C(=O)NC12CCN(OC)CC2`, the “Resistance Factor (RF80)” value amounted to 4.
For the compound `CON1CCC2(CC1)C(=O)C(c1c(C)cc(C)cc1C)C(=O)N2OC1CCCO1` (stereo not shown), the “Resistance Factor (RF80)” value is listed as less than 1.
With `CCOC(=O)OC1=C(c2c(C)cc(Cl)cc2C)C(=O)NC12CCN(OC)CC2`, the “Resistance Factor (RF80)” value is less than 1.
On to `CON1CCC2(CC1)NC(=O)C(c1c(C)cc(Cl)cc1C)C2=O` (stereo not shown), for which the “Resistance Factor (RF80)” value is reported as 1.

The same data set, now with this note: neonicotinoid resistant FRC-P versus susceptible Myzus persicae; mortality 6 days after treatment.
For `CN1COCN(Cc2cnc(Cl)s2)/C1=N\[N+](=O)[O-]` [thiamethoxam, reference compound], the “Resistance factor (RF)” value is given as “high”.

For the next data set, the system named is Myzus Persicae (Green Peach Aphid). The data set is described as follows: Example B1: Myzus persicae mixed population, feeding/residual contact activity, preventive (sunflower leaf discs). To be noted: foliar, 144 h, A: neonicotinoid insecticides susceptible Myzus persicae (mixed age population), 6 DAT, read-out: Mortality (A). The data set is classed as in vivo. On the procedure:
Myzus Persicae (Green Peach Aphid): Mixed Population, Feeding/Residual Contact Activity, Preventive
Sunflower leaf discs are placed on agar in a 24-well microtiter plate and sprayed with test solutions. After drying, the leaf discs are infested with an aphid population of mixed ages. After an incubation period of 6 DAT, samples are checked for mortality.
On to `CCOC(=O)OC1=C(c2c(C)cc(C)cc2C)C(=O)N(C)C12CCN(OC)CC2` [P1.2, Carbonic acid ethyl ester 8-methoxy-1-methyl-2-oxo-3-(2,4,6-trimethyl-phenyl)-1,8-diaza-spiro[4.5]dec-3-en-4-yl ester], for which the mortality at 200 ppm was 95%.

The same data set, now with this note: foliar, 144 h, B: neonicotinoid insecticides resistant Myzus persicae (mixed age population), 6 DAT, read-out: Mortality (B).
Regarding `CCOC(=O)OC1=C(c2c(C)cc(C)cc2C)C(=O)N(C)C12CCN(OC)CC2` [P1.2, Carbonic acid ethyl ester 8-methoxy-1-methyl-2-oxo-3-(2,4,6-trimethyl-phenyl)-1,8-diaza-spiro[4.5]dec-3-en-4-yl ester], the mortality at 200 ppm came out at 90%.

A further data set deals with ALM07 strain (Neonicotinoid and pyrethroid resistant) of the Tobacco Whitefly (Bemisia tabaci). The data set is described as follows: Example B2c: Bemisia tabaci residual activity, preventive egg lay (cotton seedlings), resistant strain. The data set is classed as in vivo. As to conditions: Concentration giving 50% control of resistant (ALM07) whitefly egg lay / same for susceptible whitefly; Bemisia tabaci on cotton seedlings, 3 days after exposure.
Description: as §1
c) Neonicotinoid and Pyrethroid Resistant Strain of the Tobacco Whitefly (Bemisia tabaci)
Bemisia tabaci strains utilised: • Standard screening strain of Bemisia tabaci (Neonicotinoid susceptible) • ALM07 strain of […] (Neonicotinoid and pyrethroid resistant) and originally provided by Rothamsted Research, UK. (>250 RF in residual mortality bioassay of adult whitefly with thiamethoxam). Bioassay Method: […]
Cotton seedlings, with all but a single leaf removed are treated with the diluted test solutions in a turn table spray chamber. […] 3 days after exposure, the total number of adult whitefly and the total number of whitefly eggs laid on the leaf are counted. Percentage control of egg lay is calculated and corrected for control mortality.
As to `CCOC(=O)OC1=C(c2c(C)cc(C)cc2C)C(=O)N(C)C12CCN(OC)CC2` [drawing 476], the “Resistance Factor (RF50)” value is 4.

Values taken from patent US9485989B2, “Method of controlling neonicotinoid resistant hemiptera” (Syngenta Participations AG, priority 2010, dated 2016).
